For data set [1], the target named is nAChR formed by the α7 subunit (3H-α-bungarotoxin binding site) (Rattus norvegicus, UniProt Q05941). In words: biochemical.
Data set [2] has as its target nicotinic ACh receptors comprised of α4 and β2 subunits (3H-cytisine binding site) (Rattus norvegicus, UniProt P09483+P12390). As to the kind of experiment: In vitro inhibition of 3H-cytisine binding. How it is done: In vitro inhibition of ^3H-cytisine binding
The predominant subtype with high affinity for nicotine is comprised of α4 and β2 subunits. nAChRs of the latter type can selectively be labelled by the nicotine agonist ^3H-cytisine.
Preparations are performed at 0-4° C. unless otherwise indicated. […] The homogenate is centrifuged at 27,000×g for 10 min. The supernatant is discarded and the pellet is resuspended in fresh buffer and centrifuged a second time. The final pellet is resuspended in fresh buffer (35 ml per g of original tissue) and used for binding assays.
Aliquots of 500 μl homogenate are added to 25 μl of test solution and 25 μl of ^3H-cytisine (1 nM, final concentration), mixed and incubated for 90 min at 2° C. Non-specific binding is determined using (−)-nicotne (100 μM, final concentration). After incubation the samples are added 5 ml of ice-cold buffer and poured directly onto Whatman GF/C glass fibre filters under suction and immediately washed with 2×5 ml ice-cold buffer. The amount of radioactivity on the filters is determined by conventional liquid scintillation counting. Specific binding is total binding minus non-specific binding.

The conditions of data set [3]: approximate potency relative to morphine; cited from earlier work.
The mark [4] stands for this setting: read-out: 3H-α-bungarotoxin IC50.
[5] abbreviates: rat cerebral cortex homogenate, 1 nM 3H-cytisine, 90 min at 2° C., read-out: 3H-cytisine IC50.

The values that follow come from US6420395B1, “Azacyclooctane and heptane derivatives, their preparation and use in therapy” (Neurosearch A/S, priority 1997, dated 2002).

Structures are written as SMILES. Where a name gives a salt, the structure may show the parent alone. Read-outs that look alike come from different tables or passages of the source.

For orientation: melting point means the temperature of the solid-liquid transition. In general, IC50 refers to the point on the concentration scale where inhibition reaches its midpoint.

Chain of nicotinic ACh receptors comprised of α4 and β2 subunits (3H-cytisine binding site) (P09483 31-630): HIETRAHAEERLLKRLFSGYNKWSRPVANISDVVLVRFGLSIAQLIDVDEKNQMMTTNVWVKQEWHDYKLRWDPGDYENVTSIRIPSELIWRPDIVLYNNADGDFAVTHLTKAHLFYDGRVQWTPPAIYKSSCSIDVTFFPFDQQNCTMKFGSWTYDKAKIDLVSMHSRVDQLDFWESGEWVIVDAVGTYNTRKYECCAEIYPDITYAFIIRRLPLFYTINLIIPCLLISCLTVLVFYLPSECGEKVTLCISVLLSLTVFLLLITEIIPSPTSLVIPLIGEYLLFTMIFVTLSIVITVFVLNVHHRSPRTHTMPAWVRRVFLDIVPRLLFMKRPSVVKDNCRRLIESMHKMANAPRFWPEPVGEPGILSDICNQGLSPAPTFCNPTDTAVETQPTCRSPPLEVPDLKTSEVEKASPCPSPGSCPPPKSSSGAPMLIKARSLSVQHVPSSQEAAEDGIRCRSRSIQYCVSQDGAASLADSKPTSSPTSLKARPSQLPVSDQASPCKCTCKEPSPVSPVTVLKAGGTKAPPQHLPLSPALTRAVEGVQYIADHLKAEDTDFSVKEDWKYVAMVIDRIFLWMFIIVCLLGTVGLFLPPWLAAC
Chain of nicotinic ACh receptors comprised of α4 and β2 subunits (3H-cytisine binding site) (P12390 25-500): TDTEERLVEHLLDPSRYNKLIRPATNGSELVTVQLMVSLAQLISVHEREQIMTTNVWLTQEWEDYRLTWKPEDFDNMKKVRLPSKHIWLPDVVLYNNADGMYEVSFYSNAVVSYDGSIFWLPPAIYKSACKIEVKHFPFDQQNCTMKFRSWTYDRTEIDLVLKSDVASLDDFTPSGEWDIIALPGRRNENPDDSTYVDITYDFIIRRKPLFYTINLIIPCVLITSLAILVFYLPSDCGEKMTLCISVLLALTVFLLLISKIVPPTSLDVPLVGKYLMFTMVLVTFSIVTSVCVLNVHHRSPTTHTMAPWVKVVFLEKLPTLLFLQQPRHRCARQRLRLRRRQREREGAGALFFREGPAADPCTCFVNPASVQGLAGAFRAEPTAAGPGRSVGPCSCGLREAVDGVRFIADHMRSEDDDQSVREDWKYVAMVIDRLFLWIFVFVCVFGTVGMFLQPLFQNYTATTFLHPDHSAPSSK
Chain of nAChR formed by the α7 subunit (3H-α-bungarotoxin binding site) (Q05941 23-502): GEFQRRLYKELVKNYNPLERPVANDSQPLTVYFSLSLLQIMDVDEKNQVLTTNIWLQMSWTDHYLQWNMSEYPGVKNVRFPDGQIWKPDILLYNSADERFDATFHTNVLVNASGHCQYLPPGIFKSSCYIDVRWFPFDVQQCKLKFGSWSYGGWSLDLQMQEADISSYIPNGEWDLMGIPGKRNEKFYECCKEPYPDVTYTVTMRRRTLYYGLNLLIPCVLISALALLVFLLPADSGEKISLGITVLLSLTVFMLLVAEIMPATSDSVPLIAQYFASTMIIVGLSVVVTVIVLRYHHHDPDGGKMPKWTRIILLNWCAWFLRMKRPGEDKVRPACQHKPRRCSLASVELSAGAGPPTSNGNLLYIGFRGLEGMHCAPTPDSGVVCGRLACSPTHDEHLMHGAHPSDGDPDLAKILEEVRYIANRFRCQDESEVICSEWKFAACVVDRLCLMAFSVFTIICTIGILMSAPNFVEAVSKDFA

`c1cncc(C2CCCCCCN2)c1` (racemic) (as salt: fumaric acid salt) [Compound 1a, (R,S)-1-H-2-(3-pyridyl)azacyclooctane fumaric acid salt] showed a melting point of 141 to 142 °C.
On the same count and under the same terms, next, `c1ccc2ncc(C3CCCCCCN3)cc2c1` (racemic) (as salt: fumaric acid salt) [Compound 3a, (R,S)-1-H-2-(3-quinolinyl)azacyclooctane fumaric acid salt]: 172 to 174 °C.
For the compound `CCSc1cncc(C2CCCCCN2)c1` (racemic) (as salt: fumaric acid salt) [Compound 5a, (R,S)-1-H-2-(5-thioethyl-3-pyridyl)azacycloheptane fumaric acid salt], the melting point lay in the range of 159 to 161 °C.
Consider `CCSc1cncc(C2CCCCCCN2C)c1` (racemic) (as salt: fumaric acid salt) [Compound 5b, (R,S)-1-Methyl-2-(5-thioethyl-3-pyridyl)azacyclooctane fumaric acid salt], for which the melting point fell in the range of 143.5 to 145.5 °C.
On to `c1cncc(C2CCCCCCN2)c1` (racemic) [Compound 1a, (R,S)-1-H-2-(3-pyridyl)azacyclooctane fumaric acid salt], for which the IC50 in data set [1] (setting [4]) is 2000 nM; in data set [2], 200 nM.
In the same order, the values of `CN1CCCCCCC1c1cccnc1` (racemic) [Compound 1b, (R,S)-1-Methyl-2-(3-pyridyl)azacyclooctane] are 67000 nM and 560 nM.
In the case of `c1ccc2ncc(C3CCCCCCN3)cc2c1` (racemic) [Compound 3a, (R,S)-1-H-2-(3-quinolinyl)azacyclooctane fumaric acid salt], the IC50 is more than 30000 nM in data set [1] and 1300 nM in data set [2] (setting [5]).
With `CCSc1cncc(C2CCCCCN2)c1` (racemic) [Compound 5a, (R,S)-1-H-2-(5-thioethyl-3-pyridyl)azacycloheptane fumaric acid salt], the results for the concentration for half-maximal inhibition (IC50) in data set [1] and in data set [2] (setting [5]) were more than 30000 nM and 4300 nM, respectively.
`CCSc1cncc(C2CCCCCCN2C)c1` (racemic) [Compound 5b, (R,S)-1-Methyl-2-(5-thioethyl-3-pyridyl)azacyclooctane fumaric acid salt]: the IC50 in data set [2] (setting [5]) turned out to be 1950 nM.
Turning to `CCSc1cncc(C2CCCCCCN2)c1` (racemic) [Compound 6a, (R,S)-1-H-2-(5-thioethyl-3-pyridyl)azacyclooctane], the half-maximal inhibitory concentration (IC50) in data set [2] (setting [5]) amounted to 1000 nM.
`c1cncc(C2=NCCCCCC2)c1` [Compound 1c, 2-(3-Pyridyl)azacyclooct-1-ene]: the IC50 in data set [1] (setting [4]) turned out to be 1400 nM; in data set [2], 59 nM.
`Clc1ccc(C2CC3CCC2N3)cn1` (centres unmarked) [Epibatidine]: in data set [3], the “analgesic potency, times that of morphine” value is recorded as approximately 500 times.
